US10087215B2, “Stabilized SOS1 peptides” (DANA-FARBER CANCER INSTITUTE, INC., priority 2013, dated 2018)
Bridges are numbered along the chain shown (N, C = ends). Where no end group is shown, it is not given here. [ ]: non-standard residue; d: D form. The star is where a group is joined. guanine PNA monomer = guanine peptide-nucleic acid (PNA) monomer, attached to a lysine side chain, NCCN(CC(=O)*)C(=O)Cn1cnc2c(=O)[nH]c(N)nc21; G‑GMONO = glycine-G PNA monomer on lysine; S5 = C=CCCC[C@](C)(N)C(=O)O

Experiments:
KRAS wild type [1] = molecular target: T1, KRAS wild type (Homo sapiens, UniProt P01116); assay: Fluorescence polarization binding assay, wild-type KRAS
Method: The affinity of the various peptides is detailed in FIG. 5.
Expression was induced by 1 mM IPTG for 4 hours at 30° C. Collected bacterial pellets were resuspended in lysis buffer (20 mM Tris, 250 mM NaCl, pH 7.6), lysed by microfluidization (Microfluidics M-110L), and centrifuged at 45,000 rpm for 1 h at 4° C. (Beckman L-90K). […] Concentrated eluates were subjected to size exclusion chromatography and the corresponding monomeric peaks were collected. Protein concentration was determined by Bradford assay (BioRad) and UV absorbance measurements.
FP assays were performed as previously described. Briefly, FITC-SAH-SOS peptides (e.g. 15 nM) were incubated with the indicated serial dilution of KRAS wild-type or mutant protein in binding buffer (50 mM Tris, 100 mM NaCl, pH 8.0) until equilibrium was reached. FP was measured using a SpectraMax M5 microplate reader (Molecular Devices). Dissociation constants (KD) were calculated by nonlinear regression analysis of dose-response curves using Prism software (GraphPad). Competition FP assays were performed by using K-RAS proteins (e.g. 250 nM), FITC-SAH-SOS peptides (e.g. 15 nM), and for competition assays, a serial dilution of N-terminal acetylated SAH-SOS peptides.

Panc 10.05 cells = details: confocal microscopy and lysate fluorescence scan
KRAS G12D = KRAS G12D (Homo sapiens, UniProt P01116, G12D); assay: mant-GTP loading of KRAS, G12D; assay type: biochemical; details: for inhibition of mant-GTP loading: KRAS G12D oncogenic variant; for inhibition of nucleotide (mant-GTP) loading of KRAS: KRAS G12D per FIG. 20 legend
From the text: (§1) The negative control SAH-SOS B2 peptide had no effect (FIG. 11A-D).
Fluorescent GTP analog, mant-GTP, was used to assess the GTP loading propensity of KRAS protein.

KRAS wild type [2] = molecular target: T1, KRAS wild type; assay: mant-GTP loading of KRAS, wild type; assay type: biochemical
From the text: as §1

KRAS and SOS1 protein = KRAS and SOS1 protein (Homo sapiens, UniProt P01116); assay: Disruption of the association between KRAS and SOS1 protein in vitro; assay type: biochemical
[3] = test system: HCT116 (colorectal cancer, KRAS G13D); assay: Cell viability, CellTiter-Glo, HCT116; assay type: cell-based; details: HCT116, 24 hours
Method: SAH-SOSB2, which contains a staple position that interferes with the KRAS binding interface, served as a negative control for this experiment. Dose-dependent cytotoxic activity of guanine peptide-nucleic acid derivatives of SAH-SOSC2 was also observed in a series of pancreatic and lung cancer subtypes (FIG. 22).
(§2) The indicated cell lines (10^4/well) were plated overnight (96-well format) in high-glucose DMEM media supplemented with 10% FBS, antibiotics and L-Glutamine. Media was aspirated, and SAH-SOS peptides added at the indicated concentrations in serum-free DMEM. Cell viability was measured at 24 hours using the CellTiter-Glo assay (Invitrogen). The plotted data represent percent viability as normalized to untreated controls.

[4] = test system: lung, pancreatic, colon, and cervical cancer cell lines; assay: Susceptibility of a diversity of cancer cell lines; assay type: cell-based
Method: (§3) We tested a diversity of cancer cells lines to evaluate their susceptibility to SAH-SOS peptide treatments. […] After 4 h incubation with the indicated peptides, HeLa (FIG. 15A) or Panc 10.05 (FIG. 15B) cells were treated with […] (EGF), an upstream KRAS activator, and, lysates were prepared, subjected to electrophoresis, and western blotted with the indicated phospho-specific antibodies. Cells treated with or without EGF, in the absence of added peptide, served as positive and negative controls, respectively.
as §2

[5] = test system: mouse embryonic fibroblasts; details: 0.5 μM FITC-conjugated peptide, 4 hours
[6] = test system: A549 (lung adenocarcinoma, KRAS G12S); assay: Cell viability, CellTiter-Glo, A549; assay type: cell-based; details: A549, 24 hours
Method: as §2

wildtype KRAS = wildtype KRAS (Homo sapiens, UniProt P01116); assay: Nucleotide (GTP) exchange assay with mant-GTP; assay type: biochemical; details: mant-GTP loaded KRAS, excess unlabeled GTP (10x)
Method: KRAS was loaded with equimolar mant-GTP (a fluorescent GTP analog), and excess unlabeled GTP (10×) is then added to the reaction mixture. The observed decrease in fluorescence reflects the GTP turnover activity at the KRAS active site. SAH-SOS peptides reduce the GTP turnover activity, as reflected by a shift of the curves from the no peptide negative control toward the inhibited exchange (2 mM MgCl2) positive control (FIG. 10).
Nucleotide exchange assays were performed as an association-dissociation experiment in which mant-GTP first associates with K-Ras followed by a dissociation step in which excess unlabeled GTP outcompetes mant-GTP, thus decreasing the fluorescence, as previously described^5. A kinetic readout of fluorescence, corresponding to the dissociation step, was recorded on a Tecan X1000 fluorescence spectrometer (excitation 360 nm, emission 440 nm). The rate of nucleotide exchange was determined by fitting a single exponential function to the dissociation phase readout from the experiment (Prism software, GraphPad). Reactions were performed with the indicated amounts of SAH-SOS peptides in buffer containing 25 mM Tris (pH 7.5), 50 mM NaCl, 1 mM DTT with 2 μM wildtype KRAS, 2 μM mantGTP and 200 μM unlabeled GTP. 2 mM MgCl2 was added as a […] to inhibit mantGTP release.

[7] = test system: HeLa (cervical cancer, WT KRAS); assay: Cell viability, CellTiter-Glo, HeLa; assay type: cell-based; details: 24 hours
Method: as §2

[8] = test system: Myc promoter luciferase reporter in HeLa cells; assay: Myc promoter luciferase reporter assay; assay type: cell-based; details: EGF stimulation, normalized to cell viability
Method: HeLa cells transfected with a reporter construct containing luciferase under the control of the Myc promoter was treated with EGF and the indicated concentrations of SAH-SOS peptides (FIG. 16). The luciferase readout was normalized to cell viability and plotted as percent luciferase expression compared to baseline. […] No EGF treatment served as a negative control for the experiment.
HeLa cells (10^4/well) were plated overnight (96-well format) in high-glucose DMEM media supplemented with 10% FBS, antibiotics and L-Glutamine. After 24 hour incubation, cells were transfected with pBV-Luc/Del-6 plasmid that includes a luciferase reporter under c-myc promoter, using Lipofectamine 2000 (Invitrogen) according to the manufacturer's protocol. Twenty-four hours after transfection, the cells were treated with the indicated amounts of SAH-SOS peptides for 4 hours in serum-free media, and then. EGF (50 ng/ml) was added for an additional 4 hour incubation. CellTiter-Glo and luciferase (Invitrogen) kits were used to quantify cell viability and luciferase expression, respectively. Viability data was used to normalize luciferase expression.

[9] = test system: phospho-MEK1/2, phospho-ERK1/2, phospho-Akt, phospho-S6K, and phospho-myc in HeLa or Panc 10.05 cells; assay: Phospho-western blotting of downstream KRAS targets after EGF; assay type: cell-based; details: 4 h peptide incubation, then Epidermal Growth Factor (EGF)
Method: as §3
HeLa cells (10^5/well) were plated overnight (12-well format) in high-glucose DMEM media supplemented with 10% FBS, antibiotics and L-Glutamine. After 24 hours, cells were treated with the indicated amounts of SAH-SOS peptides for 4 hours in serum-free DMEM, followed by the addition of EGF (50 ng/ml) ([…], Cell Signaling) for an additional 15 minute incubation. The cells were then lysed in buffer containing 0.5% NP-40, 50 mM Tris (pH 7.4), 150 mM NaCl, complete protease inhibitors and PhosphoOne phosphatase inhibitors (Roche), and collected lysates subjected to SDS-PAGE following by western blotting with anti-phospho-Erk1/2, phospho-S6K, phospho-myc (Cell Signaling), and actin (Sigma) antibodies.

inhibition of nucleotide (mant-GTP) loading of KRAS (KRAS G12D)	Compound	binding to KRAS, in words (KRAS wild type [1])	cellular uptake (Panc 10.05 cells)	inhibition of mant-GTP loading (KRAS G12D)	inhibition of mant-GTP loading (KRAS wild type [2])	disruption of KRAS-SOS1 association (KRAS and SOS1 protein)	cell viability [3]	anti-tumor activity in cancer cell lines [4]	cellular uptake [5]	cell viability [6]	GTP exchange activity of KRAS (wildtype KRAS)	cell viability [7]	myc-driven luciferase expression [8]	phosphorylation of downstream KRAS targets [9]
	CC[C@H](C)[C@H](NC(=O)[C@]1(C)CCCC=CCCC[C@](C)(NC(=O)CNC(=O)[C@H](Cc2ccccc2)NC(=O)[C@H](Cc2ccccc2)NC(=O)[C@H](CCCNC(=N)N)NC(=O)[C@H](CCCNC(=N)N)NC(=O)CCNC(=S)Nc2ccc3c(c2)C(=O)OC32c3ccc(O)cc3Oc3cc(O)ccc32)C(=O)N[C@@H](Cc2ccc(O)cc2)C(=O)N[C@@H](CC(C)C)C(=O)N[C@@H]([C@@H](C)O)C(=O)N1)C(=O)N[C@@H](CC(C)C)C(=O)N[C@@H](CCCCN)C(=O)N[C@H](C(=O)N[C@@H](CCC(=O)O)C(=O)N[C@@H](CCC(=O)O)C(=O)NCC(=O)N[C@@H](CC(N)=O)C(N)=O)[C@@H](C)O [SAH-SOSB2, RRFFGXYLTXILKTEEGN]	does not bind KRAS	dose-dependent cellular uptake was observed	had no effect	had no effect	displayed no such activity								
	CC[C@H](C)[C@H](NC(=O)CNC(=O)[C@H](Cc1ccccc1)NC(=O)[C@H](Cc1ccccc1)NC(=O)[C@H](CCCNC(=N)N)NC(=O)[C@H](CCCNC(=N)N)NC(=O)CCNC(=S)Nc1ccc2c(c1)C(=O)OC21c2ccc(O)cc2Oc2cc(O)ccc21)C(=O)N[C@@]1(C)CCCC=CCCC[C@@](C)(C(=O)N[C@@H](CC(C)C)C(=O)N[C@@H](CCCCN)C(=O)N[C@H](C(=O)N[C@@H](CCC(=O)O)C(=O)N[C@@H](CCC(=O)O)C(=O)NCC(=O)N[C@@H](CC(N)=O)C(N)=O)[C@@H](C)O)NC(=O)[C@H](CC(N)=O)NC(=O)[C@H]([C@@H](C)O)NC(=O)[C@H](CC(C)C)NC1=O [SAH-SOSC2, RRFFGIXLTNXLKTEEGN]	among the highest affinity	dose-dependent cellular uptake was observed	dose-responsively inhibited mant-GTP loading	dose-responsively inhibited mant-GTP loading	disrupted the association between KRAS and SOS1 protein	impairs the viability	demonstrated anti-tumor activity	cellular uptake	impairs the viability	reduce the GTP exchange activity of KRAS in vitro in a dose-responsive manner	impairs the viability	specifically inhibited myc-driven luciferase expression	dose-responsively inhibited phosphorylation
effectively inhibited nucleotide loading	RRFFGIXLTNXLRTEK(G-GMONO)GN (RRFFGI[S5]LTN[S5]LRTEK(G‑GMONO)GN; staple 7-11) [SAH-SOS(G-Gmono), SAH-SOSC2 derivative with glycine-conjugated G-monomer on a lysine side chain]													
effectively inhibited nucleotide loading	RRFFGIXLTNXLRTEKGN (RRFFGI[S5]LTN[S5]LRTEK(guanine PNA monomer)GN; staple 7-11) [SAH-SOS(Gmono), SAH-SOSC2 derivative with guanine peptide-nucleic acid monomer (Gmono) on a lysine side chain]													
